The record followed here is patent US20200148617A1, “GEMCABENE, PHARMACEUTICALLY ACCEPTABLE SALTS THEREOF, COMPOSITIONS THEREOF AND METHODS OF USE THEREFOR” (GEMPHIRE THERAPEUTICS INC., priority 2017, published 2020).

The nature of series [1]: Solubility of gemcabene calcium salt Crystal Form 1 by solvent addition method. It counts as physicochemical. As to the method:
Approximately 20 mg of gemcabene calcium Crystal Form 1 was added to 5×2 mL vials. The solubility in 5 solvents was tested using a solvent addition method. Solvents included acetone, ethanol, ethyl acetate, t-butyl methyl ether (t-BME) and water. Solvent was added in 5 volume (100 μL) aliquots until either dissolution or 2 mL in total had been added. Between each addition, samples were heated to 60° C. (40° C. for acetone and t-BME). Any solids remaining after 24 hours at ambient were analyzed by X-ray powder diffraction (XRPD).

A short description of series [2]: Particle size distribution by laser light diffraction (Malvern Mastersizer 2000, Fraunhofer). It counts as physicochemical. The note with it: cumulative volume. As to the method: In some embodiments, the particle size distribution and the PSD90 of a compound of the invention is determined by the laser light diffraction particle size distribution analysis. The particle size distribution is determined in accordance with the Fraunhofer light diffraction method. In this method, a coherent laser beam passes through the sample and the resulting diffraction pattern is focused on a multi-element detector. Since the diffraction pattern depends, among other parameters, on particle size, the particle size distribution can be calculated based on the measured diffraction pattern of the sample. The method is described in more detail in USP38-NF33, <429> Light Diffraction Measurement of Particle Size.
The particle size distribution was determined in accordance with the Fraunhofer light diffraction method. A coherent laser beam was passed through the sample and the resulting diffraction pattern was focused on a multi-element detector. Because the diffraction pattern depends, among other parameters, on particle size, the particle size distribution (PSD) was calculated based on the measured diffraction patter of the sample.
Stock dispersion solution was prepared by adding a few drops of the dispersing aid (e.g., 1% w/w solution of a detergent in white spirit such as Span 80, Fluka (85548-250 ml)) to an appropriate amount of substance and mixed carefully. The dispersion was then slowly diluted to a final volume of about 10 ml while vortexing. The suspension cell of the instrument (Malvern Mastersizer 2000 equipped with Hydro 2000S sample dispersion unit) was filled with dispersion medium and a background measurement was taken. […] The cumulative volume distribution was determined in accordance with the instrument's instruction manual.
The PSD10, PSD50, and PSD90 values were determined from the cumulative volume distribution of each measurement. Values smaller than 10 μm were reported to one decimal place. Results larger than 10 μm were reported as single digit values. Sample parameters used in analysis are shown below: […]

The subject of series [3] is patients with hypercholesterolemia on stable statins. The experiment in a line: 12-week placebo-controlled study of 600 mg QD in hypercholesterolemia patients on stable moderate and high-intensity statins: atherogenic and inflammatory biomarkers. Type of series: in vivo, human. The settings on record: add-on to background statins. As to the method:
High-risk patients including some, but not all those with heterozygous familial hypercholesterolemia (HeFH) or atherosclerotic cardiovascular disease (ASCVD) on appropriate diet and stable statin therapy for at least 12 weeks and LDL-C ≥100 mg/dL (2.59 mmol/L) and triglycerides <500 mg/dL (5.65 mmol/L) were randomized into a 12-week, placebo-controlled, parallel-group, double-blind study to assess the efficacy of gemcabene calcium salt hydrate Crystal Form 1 (PSD90=52 μm) 600 mg (300-mg Tablet D×2) QD on LDL-C and other lipoproteins and hsCRP (high-sensitivity C-reactive protein). Safety and tolerability were also evaluated. […]
Within the study population, an analysis was performed in a subpopulation of patients having mixed dyslipidemia (LDL-C ≥100 mg/dL and triglycerides ≥200 and <500 mg/dL). Eighteen patients (10 (Tablet D×2) patients and 8 placebo patients) having a baseline mean LDL-C level of 142 mg/dL, baseline mean triglyceride level of 247 mg/dL and BMI of 34 kg/m^2 were analyzed (FIG. 48). Although not measured in the subpopulation of this Example, some cardiometabolic patients could have elevated sulphatase-2 (Sulf-2) levels, which are believed to cause reduced Syndecan-1 (also known as “remnant receptor”)-mediated clearance of atherogenic remnant lipoproteins. […]

Molecules are shown by their SMILES.

For the compound `CC(C)(CCCCOCCCCC(C)(C)C(=O)[O-])C(=O)[O-].O.[Ca+2]` [6-(5-Carboxy-5-methyl-hexyloxy)-2,2-dimethylhexanoic acid calcium (gemcabene calcium salt) hydrate Crystal Form 1], the Solubility – broadly, how much of the substance goes into solution per volume – was less than 10 mg/mL in series [1] (/-Butyl Methyl Ether (t-BME)); less than 10 mg/mL in series [1] (Acetone); less than 10 mg/mL in series [1] (Ethanol); less than 10 mg/mL in series [1] (Ethyl Acetate); 33 mg/mL in series [1] (Water). Further, the “D10 (PSD10)” value in series [2] is given as “D10 = 8.9 μm”. In addition, the “D50 (PSD50)” value in series [2] is given as “D50 = 24.3 μm”. Moreover, the “D90 (PSD90)” value in series [2] is on record as “D90 = 44.1 μm”. The “serum hsCRP” value in series [3] is on record as “decreased”.
